ChEMBL document CHEMBL2073806, “Effect of PCB-126 on intracellular accumulation and transepithelial transport of vinblastine in LLC-PK1 and its transformant cells expressing human P-glycoprotein” (J Vet Med Sci, 2004)

Target: ATP-dependent translocase ABCB1 (Homo sapiens, UniProt P08183)
Assay: TP_TRANSPORTER: transepithelial transport (basal to apical) in LLC-MDR1 cells
Type: functional, cell-based
Details: pig

ATP-dependent translocase ABCB1, sequence (P08183 whole entry): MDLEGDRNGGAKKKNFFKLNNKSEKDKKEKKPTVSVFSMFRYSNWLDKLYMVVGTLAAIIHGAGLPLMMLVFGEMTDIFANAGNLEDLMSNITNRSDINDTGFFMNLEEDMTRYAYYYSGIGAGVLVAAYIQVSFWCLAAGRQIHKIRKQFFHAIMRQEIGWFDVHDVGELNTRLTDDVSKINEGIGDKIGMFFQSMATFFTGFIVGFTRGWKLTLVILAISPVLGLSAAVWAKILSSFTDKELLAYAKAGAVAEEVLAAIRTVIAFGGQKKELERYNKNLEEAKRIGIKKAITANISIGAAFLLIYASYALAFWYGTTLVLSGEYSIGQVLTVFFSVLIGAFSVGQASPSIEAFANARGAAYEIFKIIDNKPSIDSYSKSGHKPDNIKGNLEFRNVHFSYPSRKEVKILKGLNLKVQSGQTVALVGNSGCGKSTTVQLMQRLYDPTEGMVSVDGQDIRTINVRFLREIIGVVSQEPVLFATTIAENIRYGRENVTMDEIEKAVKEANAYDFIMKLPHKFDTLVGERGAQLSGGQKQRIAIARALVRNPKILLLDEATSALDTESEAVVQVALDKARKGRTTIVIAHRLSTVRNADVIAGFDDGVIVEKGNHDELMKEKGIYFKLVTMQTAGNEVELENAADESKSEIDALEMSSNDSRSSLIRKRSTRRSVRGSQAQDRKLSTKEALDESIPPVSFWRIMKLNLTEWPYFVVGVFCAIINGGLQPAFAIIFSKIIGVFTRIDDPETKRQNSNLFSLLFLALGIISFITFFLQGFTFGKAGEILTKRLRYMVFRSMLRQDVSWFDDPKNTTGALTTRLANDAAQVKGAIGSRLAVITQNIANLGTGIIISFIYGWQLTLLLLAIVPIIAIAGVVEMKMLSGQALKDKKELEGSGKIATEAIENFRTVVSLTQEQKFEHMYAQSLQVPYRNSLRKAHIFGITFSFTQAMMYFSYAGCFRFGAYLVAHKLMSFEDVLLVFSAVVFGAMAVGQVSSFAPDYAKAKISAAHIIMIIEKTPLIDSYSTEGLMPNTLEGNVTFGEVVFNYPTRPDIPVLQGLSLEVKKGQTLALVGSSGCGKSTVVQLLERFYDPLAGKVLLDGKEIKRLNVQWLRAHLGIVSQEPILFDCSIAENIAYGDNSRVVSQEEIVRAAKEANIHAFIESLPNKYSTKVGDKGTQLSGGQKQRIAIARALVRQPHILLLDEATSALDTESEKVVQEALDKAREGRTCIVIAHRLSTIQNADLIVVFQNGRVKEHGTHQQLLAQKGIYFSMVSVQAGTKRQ

## Clc1ccc(-c2cc(Cl)c(Cl)c(Cl)c2)cc1Cl [POLYCHLORINATED BIPHENYL 126]
  Activity: substrate [+]
